Values after ≈ are worked out from the molar mass of the structure shown.
Assays:
L6 = assay: Cytotoxicity against rat L6 cells incubated for 70 hrs by resazurin dye based assay; type: cell-based; details: L6, 70 h
[1] = Intrinsic clearance in CD1 mouse liver microsomes at 0.5 uM measured up to 30 mins in presence of NADPH by UPLC-MSMS analysis; type: ADME, Microsome; details: 0.5 h
[2] = Selectivity ratio, EC50 for cytotoxicity against rat L6 cells to EC50 for antitrypanosomal activity against Trypanosoma cruzi Tulahuen strain C2C4 trypomastigotes infected in rat L6 cells; type: toxicity, cell-based; details: read-out: Ratio EC50
Trypanosoma cruzi = assay: Antitrypanosomal activity against Trypanosoma cruzi Tulahuen strain C2C4 trypomastigotes infected in rat L6 cells incubated for 96 hrs by photometric method based assay; type: functional, organism-based; details: Tulahuen strain C2C4, L6, 96 h
[3] = Kinetic aqueous solubility of compound in DMSO by nephelometric analysis; type: physicochemical; details: read-out: Kinetic_solubility

| SMILES | EC50 (L6) [µM] | intrinsic clearance [1] [mL/min/g] | selectivity ratio [2] | EC50 (Trypanosoma cruzi) [µM] | solubility kinetic [3] [µM] |
| --- | --- | --- | --- | --- | --- |
| CC(C)[C@H]1CC[C@@H](n2c(=O)[nH]c3ncc(N)cc3c2=O)CC1 | 46 | 4.8 | 81 | 0.57 | 17 (≈ 5.14 µg/mL) |
| CC(=O)Nc1cnc2[nH]c(=O)n([C@H]3CC[C@@H](C(C)(C)C)CC3)c(=O)c2c1 | 15 | 15 | 150 | 0.1 | < 28 |
| CC(C)(C)C(=O)Nc1ccc2[nH]c(=O)n(CCC3CCCCC3)c(=O)c2c1 | 13 | – | 1.8 | 7.1 | – |
| CC(=O)Nc1ccc2[nH]c(=O)n([C@H]3CC[C@@H](C(F)(F)F)CC3)c(=O)c2c1 | 18 | 2.7 | 4.2 | 4.3 | 180 (≈ 66.5 µg/mL) |
| CC(=O)Nc1ccc2[nH]c(=O)n(Cc3ccccc3)c(=O)c2c1 | 148 | – | 9 | 17 | – |
| CC(=O)Nc1ccc2[nH]c(=O)n([C@H](C)C3CCCCC3)c(=O)c2c1 | 88 | – | 40 | 2.2 | – |
| CC(=O)Nc1ccc2[nH]c(=O)n([C@H]3CC[C@@H](C(C)C)CC3)c(=O)c2c1 | 41 | 26 | 210 | 0.2 | – |
| CC(=O)Nc1ccc2[nH]c(=O)n(C3CCC(C)(C)CC3)c(=O)c2c1 | 12 | 3.7 | 67 | 0.18 | 128 (≈ 42.2 µg/mL) |
| COc1cc([C@@H]2c3cc4c(cc3[C@H](O)[C@H]3COC(=O)[C@H]23)OCO4)cc(OC)c1OC [PODOFILOX] | 0.014 | – | – | – | – |
| O=c1[nH]c2ccc(-c3ccncc3)cc2c(=O)n1CCC1CCCCC1 | 14 | – | 8 | 1.7 | – |
| CC(C)(C)[C@H]1CC[C@H](n2c(=O)[nH]c3ncc(N)cc3c2=O)CC1 | 63 | 0.5 | 95 | 0.66 | – |
| CC(=O)Nc1ccc2[nH]c(=O)n(-c3ccc(C(C)(C)C)cc3)c(=O)c2c1 | 17 | – | 4 | 4.3 | – |
| CC(=O)Nc1ccc2[nH]c(=O)n(CCc3ccccc3)c(=O)c2c1 | 139 | – | 130 | 1.1 | – |
| CC(=O)Nc1ccc2[nH]c(=O)n([C@H]3CCO[C@@H](C(C)(C)C)C3)c(=O)c2c1 (racemic) | 125 | 16 | 60 | 2.1 | – |
| Nc1ccc2[nH]c(=O)n(CCC3CCCCC3)c(=O)c2c1 | 19 | – | 10 | 1.9 | – |
| CC(=O)Nc1ccc2[nH]c(=O)n(C3CCN(C(=O)OC(C)(C)C)C3)c(=O)c2c1 (racemic) | 170 | – | 3.1 | 54 | – |
| CC(=O)Nc1ccc2[nH]c(=O)n(CCCC3CCCCC3)c(=O)c2c1 | 87 | – | 180 | 0.48 | – |
| CC(=O)Nc1ccc2[nH]c(=O)n(CCCc3ccccc3)c(=O)c2c1 | 134 | – | 18 | 7.5 | – |
| CC(=O)Nc1ccc2[nH]c(=O)n(CCCC(C)C)c(=O)c2c1 | 173 | – | 43 | 4 | – |

| SMILES | EC50 (L6) [µM] | intrinsic clearance [1] [mL/min/g] | selectivity ratio [2] | EC50 (Trypanosoma cruzi) [µM] | solubility kinetic [3] [µM] |
| --- | --- | --- | --- | --- | --- |
| CC(=O)Nc1ccc2[nH]c(=O)n(C3CCN(C(=O)c4ccccc4)CC3)c(=O)c2c1 | 135 | – | 1 | 140 | – |
| CC(=O)Nc1ccc2[nH]c(=O)n(C3CCCC3)c(=O)c2c1 | 184 | – | 15 | 12 | – |
| CC(=O)Nc1ccc2[nH]c(=O)n([C@H]3CC[C@H](C(F)(F)F)CC3)c(=O)c2c1 | 9.5 | < 0.5 | 27 | 0.35 | – |
| CC[C@H]1CC[C@H](n2c(=O)[nH]c3ccc(N)cc3c2=O)CC1 | 32 | 4.2 | 270 | 0.12 | – |
| O=C(Cn1ccnc1[N+](=O)[O-])NCc1ccccc1 [BENZNIDAZOLE] | – | – | – | 1.94 | – |
| CC(=O)Nc1ccc2[nH]c(=O)n([C@H]3CC[C@H](OC(C)C)CC3)c(=O)c2c1 | 136 | < 0.5 | 44 | 3.1 | – |
| CCC[C@H]1CC[C@@H](n2c(=O)[nH]c3ccc(NC(C)=O)cc3c2=O)CC1 | 14 | 19 | 700 | 0.02 | 102 (≈ 35 µg/mL) |
| CC[C@H]1CC[C@@H](n2c(=O)[nH]c3ncc(NC(C)=O)cc3c2=O)CC1 | 48 | 2.7 | 150 | 0.33 | 48 (≈ 15.9 µg/mL) |
| CC(=O)Nc1ccc2[nH]c(=O)n(CC3CCCCC3)c(=O)c2c1 | 54 | – | 23 | 2.3 | – |
| O=c1[nH]c2ccc(-c3cccnc3)cc2c(=O)n1CCC1CCCCC1 | 14 | – | 7.4 | 1.9 | – |
| CC(=O)Nc1ccc2[nH]c(=O)n(C3CCN(C(C)(C)C)CC3)c(=O)c2c1 | > 280 | – | 1 | 220 | – |
| CC(=O)Nc1ccc2[nH]c(=O)n([C@H]3CO[C@H](C(C)(C)C)OC3)c(=O)c2c1 | 27 | < 0.5 | 47 | 0.58 | – |
| CC(C)[C@H]1CC[C@H](n2c(=O)[nH]c3ccc(N)cc3c2=O)CC1 | 22 | – | 810 | 0.027 | – |
| CC(=O)Nc1cnc2[nH]c(=O)n([C@H]3CC[C@@H](C(C)C)CC3)c(=O)c2c1 | 16 | 10 | 42 | 0.38 | 15 (≈ 5.17 µg/mL) |
| CC(=O)Nc1ccc2[nH]c(=O)n(C3CCCCC3)c(=O)c2c1 | 70 | – | 17 | 4.2 | – |
| CC[C@H]1CC[C@@H](n2c(=O)[nH]c3ccc(NC(C)=O)cc3c2=O)CC1 | 39 | 12 | 460 | 0.085 | 73 (≈ 24 µg/mL) |
| CC(=O)Nc1ccc2[nH]c(=O)n(C3CCC(C(C)(C)C)C3)c(=O)c2c1 (racemic) | 41 | 31 | 2100 | 0.02 | – |
| Cc1noc(C)c1-c1ccc2[nH]c(=O)n(CCC3CCCCC3)c(=O)c2c1 | 88 | – | – | 120 | – |
| CC(=O)Nc1ccc2[nH]c(=O)n([C@H]3CC[C@@H](NC(=O)OC(C)(C)C)CC3)c(=O)c2c1 | 118 | – | 45 | 2.6 | – |

| SMILES | EC50 (L6) [µM] | intrinsic clearance [1] [mL/min/g] | selectivity ratio [2] | EC50 (Trypanosoma cruzi) [µM] | solubility kinetic [3] [µM] |
| --- | --- | --- | --- | --- | --- |
| CC(=O)Nc1ccc2[nH]c(=O)n(C3CCN(C(=O)OC(C)(C)C)CC3)c(=O)c2c1 | 127 | – | 4.2 | 30 | – |
| CC(=O)Nc1ccc2[nH]c(=O)n([C@H]3CC[C@H](C(C)(C)F)CC3)c(=O)c2c1 | 17 | – | 6.5 | 2.6 | – |
| CC(=O)Nc1cnc2[nH]c(=O)n([C@H]3CC[C@H](C(C)C)CC3)c(=O)c2c1 | 32 | 1.4 | 520 | 0.061 | – |
| CC(=O)Nc1ccc2[nH]c(=O)n(C(CC3CCCCC3)C(N)=O)c(=O)c2c1 (centres undefined) | 222 | – | 1.3 | 170 | – |
| CC(=O)Nc1ccc2[nH]c(=O)n(C3CCCCCC3)c(=O)c2c1 | 112 | – | 53 | 2.1 | – |
| CC(=O)Nc1ccc2[nH]c(=O)n([C@H]3CC[C@H](OC(C)(C)C)CC3)c(=O)c2c1 | 123 | < 0.5 | 35 | 3.5 | – |
| CC(=O)Nc1ccc2[nH]c(=O)n(CCC(C)C)c(=O)c2c1 | 163 | – | 17 | 9.7 | – |
| CC(=O)Nc1ccc2[nH]c(=O)n(CCC3=CCCCC3)c(=O)c2c1 | 107 | – | 51 | 2.1 | – |
| CC(C)(C)[C@H]1CC[C@@H](n2c(=O)[nH]c3ccc(N)cc3c2=O)CC1 | – | 3.9 | – | – | 240 (≈ 75.7 µg/mL) |
| COCCn1c(=O)[nH]c2ccc(NC(C)=O)cc2c1=O | 0.1 | – | 0.003 | 35 | – |
| CC(C)(C)[C@H]1CC[C@@H](n2c(=O)[nH]c3ncc(N)cc3c2=O)CC1 | 44 | 1.6 | 183 | 0.24 | – |
| N#CCc1ccc2[nH]c(=O)n(CCC3CCCCC3)c(=O)c2c1 | 70 | – | 33 | 2.1 | – |
| O=c1[nH]c2ccc(-c3cncnc3)cc2c(=O)n1CCC1CCCCC1 | 126 | – | 9 | 14 | – |
| CC(=O)Nc1ccc2[nH]c(=O)n(C(C)(C)C)c(=O)c2c1 | 37 | – | 0.6 | 61 | – |
| CCCCCCn1c(=O)[nH]c2ccc(NC(C)=O)cc2c1=O | 154 | – | 53 | 2.9 | – |
| CC(=O)Nc1cnc2[nH]c(=O)n(CCC3CCCCC3)c(=O)c2c1 | 130 | – | 57 | 2.3 | 97 (≈ 32 µg/mL) |
| CC(=O)Nc1ccc2[nH]c(=O)n([C@H]3CC[C@H](C(C)(C)O)CC3)c(=O)c2c1 | 136 | – | 0.98 | 139 | 130 (≈ 46.7 µg/mL) |
| CC(=O)Nc1ccc2[nH]c(=O)n(C3CCC(C)CC3)c(=O)c2c1 (mixture of isomers) | 54 | – | 39 | 1.4 | – |
| CC(=O)Nc1ccc2[nH]c(=O)n(CCC3CCCCC3)c(=O)c2c1 | 52 | – | 110 | 0.73 | – |

From ChEMBL document CHEMBL4402577, “Discovery and Optimization of a Compound Series Active against Trypanosoma cruzi, the Causative Agent of Chagas Disease” (J Med Chem, 2020)
